Measured values as given in PMC9570042, “Impairment of Nucleolin Activity and Phosphorylation by a Trachylobane Diterpene from Psiadia punctulata in Cancer Cells” (International Journal of Molecular Sciences, 2022).

Key:
[1] = target: T1, hNcl fragment consisting of RBD1 and 2 (RBD1,2) (Homo sapiens, UniProt P19338); experiment: Surface plasmon resonance with hNcl fragment RBD1,2; type: binding; conditions: SPR, immobilized RBD1,2, 25 °C
T1 construct: using an hNcl fragment consisting of RBD1 and 2 (RBD1,2)
Protocol: Moreover, to obtain information concerning the protein region involved in the interaction with 12, a new SPR analysis was carried out using an hNcl fragment consisting of RBD1 and 2 (RBD1,2).
A Biacore 3000 optical biosensor was used to conduct Surface Plasmon Resonance (SPR) experiments. Proteins (hNcl and RBD 1,2) were dissolved at 100 µg/mL in 50 mM sodium acetate at a pH 4.5 and injected at a flow rate of 5 µL/min on a research-grade CM5 sensor chip (GE Healthcare, Chicago, IL, USA) to achieve immobilization. A standard amine-coupling protocol was used. Compound 12 was dissolved in 100% DMSO to obtain 4 mM solutions and diluted in […] (v/v) in PBS (10 mM NaH2PO4, 137 mM NaCl, 2.7 mM KCl pH 7.4). The final concentration of DMSO was 0.1% (v/v). This stock solution was used as a starting point to produce a four-concentration points series (0.025, 0.2, 1, and 4 µM). Measurements were performed at 25 °C, using a flow rate of 5 µL/min flow rate and adopting an association time of 60 s; dissociation of the complex was monitored for 300 s. The resulting sensorgrams were elaborated through the BIAevaluation software (GE Healthcare). Thermodynamic constants were calculated by adequately fitting the experimental curves with a single-site bimolecular interaction model.

[2] = test system: HeLa cells; experiment: MTT-based proliferation assay, HeLa cells; type: cell-based; conditions: Homo sapiens, 48 h, read-out: IC50, inhibition of proliferation (MTT)
Protocol: HeLa cells were seeded at 1 × 10^4 cells/well in 96-well plates. The day after the cells were incubated for 48 h with different concentrations of compounds (10–100) μM. The number of viable cells was quantified by MTT ([3-(4,5-dimethylthiazol-2-yl)-2,5-diphenyl tetrazolium bromide]) assay. Absorption at 550 nm for each well was assessed using a microplate reader (LabSystems, Vienna, VA, USA). Half maximal inhibitory concentration (IC50) values were calculated from cell viability dose–response curves and defined as the concentration resulting in 50% inhibition of cell survival as compared to controls.

[3] = test system: hNcl; experiment: hNcl distribution in cell compartments (nucleus, cytosol, membrane); type: cell-based, human; conditions: HeLa cells, 20 μM, 4 h
Protocol: The observed decrement of phosphorylated hNcl (p-hNcl) seems to be attributable to the overall decrease in its levels rather than to a modification of its cellular distribution.
For cytosol and membrane protein extraction, the HeLa cells were seeded at 1.5 × 10^6 in 100 mm culture dishes and incubated with oridonin (5 μM) or compound 12 (20 μM) for 4 h at 37 °C. The cells were harvested in PBS and centrifuged at 4 °C for 5 min at 600× g. Subsequently, the cell pellets were resuspended in lysis buffer (20 mM Tris HCl pH 7.4, 250 mM sucrose, 1 mM dithiothreitol (DTT), protease inhibitors, and 1 mM EDTA in water), sonicated (5 s pulse–9 s pause for 2 min, amplitude 42%) and then centrifuged at 4 °C for 10 min at 5000× g. The obtained supernatants were ultra-centrifuged at 4 °C for 1 h at 100,000× g, and cytosolic extracts were obtained. Each resulting pellet was resuspended in a lysis buffer and ultracentrifuged at 4 °C for 1 h at 100,000× g. The pellets were then resuspended in 250 μL solubilization buffer (20 mM Tris HCl pH 7.4, 1 mM DTT, 1 mM EDTA, and 1% Triton X-100 in water) and left overnight on an orbital shaker at 4 °C. After that, the solution was centrifuged at 4 °C for 30 min at 50,000× g, and membrane proteins were obtained. […]

[4] = test system: HeLa cells; experiment: Protein neo-synthesis in HeLa cells; type: cell-based, human; conditions: 20 μM
[5] = target: hNcl (Homo sapiens, UniProt P19338); experiment: CETSA-based screening of hNcl interactors in Jurkat cells; type: cell-based; parameters: endogenous in cells; conditions: 20 μM, 2 h, heated at 55 °C, positive control oridonin
Protocol: Based on previously published results, CETSA experiments were carried out using a Jurkat cell line using the in-cell hNcl denaturation temperature of 55 °C. The efficacy of the different testing compounds in preventing or reducing hNcl aggregation at that temperature was monitored by Western blot (Figure S1B).
Jurkat cells were seeded at 4.0 × 10^5 cells/mL. After 24 h, the cells were treated with diterpenes or the positive control oridonin (final concentration 20 μM) and then incubated for 2 h in a CO2 incubator at 37 °C. Afterward, the cells were collected and centrifuged, and the cell pellets were washed with PBS and gently suspended in 1 mL PBS supplemented with protease inhibitors. Each cell suspension (DMSO, positive control, and treated samples) was heated in a PCR machine (Invitrogen Life Science Technologies, Waltham, MA, USA) at 55 °C for 3 min. The cells were then lysed via freezing/thawing and centrifuged at 4 °C for 20 min at 20,000× g. Subsequently, the proteins were fractionated via SDS-PAGE and analyzed by Western blot. Densitometric analysis of the bands was performed using the ImageJ software. The results were plotted on graphs reporting the ratio between the density measured for each nucleolin band and the density measured for the corresponding Gapdh band. For the histogram plot, the expression level of the nucleolin protein was normalized to the negative control.

[6] = test system: HaCat cell lines; experiment: Toxicity against HaCat cell line; type: cell-based

T1 sequence (P19338 300-466 limits assumed): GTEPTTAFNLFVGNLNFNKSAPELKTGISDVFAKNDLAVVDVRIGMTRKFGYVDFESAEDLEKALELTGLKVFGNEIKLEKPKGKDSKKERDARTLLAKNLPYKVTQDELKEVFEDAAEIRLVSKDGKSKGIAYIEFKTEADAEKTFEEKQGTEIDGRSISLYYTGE
Sequence of hNcl (Homo sapiens, UniProt P19338) (P19338 whole entry): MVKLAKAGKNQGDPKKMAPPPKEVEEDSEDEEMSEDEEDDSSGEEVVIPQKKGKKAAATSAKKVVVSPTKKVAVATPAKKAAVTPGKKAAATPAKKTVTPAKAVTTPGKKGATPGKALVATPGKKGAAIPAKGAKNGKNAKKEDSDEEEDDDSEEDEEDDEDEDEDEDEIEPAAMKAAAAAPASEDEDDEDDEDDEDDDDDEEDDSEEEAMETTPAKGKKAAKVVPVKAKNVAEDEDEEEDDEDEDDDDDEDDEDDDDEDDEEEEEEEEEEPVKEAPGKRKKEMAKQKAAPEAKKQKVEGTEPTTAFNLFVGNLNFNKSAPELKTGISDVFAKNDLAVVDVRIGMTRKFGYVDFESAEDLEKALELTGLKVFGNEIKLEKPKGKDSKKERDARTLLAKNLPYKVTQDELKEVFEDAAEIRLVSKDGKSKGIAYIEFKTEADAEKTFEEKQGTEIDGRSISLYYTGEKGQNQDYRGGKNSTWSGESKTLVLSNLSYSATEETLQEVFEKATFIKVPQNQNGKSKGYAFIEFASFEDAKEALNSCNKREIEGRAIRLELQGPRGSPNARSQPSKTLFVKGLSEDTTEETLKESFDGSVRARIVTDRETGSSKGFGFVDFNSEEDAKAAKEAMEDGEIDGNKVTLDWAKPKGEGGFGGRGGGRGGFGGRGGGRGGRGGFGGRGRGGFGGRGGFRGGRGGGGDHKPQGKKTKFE

Molecule `CC1(CO)CCCC2(C)C1C(O)CC13CC4C(CC12)C4(C(=O)O)C3` (stereo not drawn) [compound 12, 6,19-dihydroxy-ent-trachiloban-17-oic acid] has a KD [1] of 0.074 ± 0.005 µM, a koff [1] of 0.0053 ± 0.009 s⁻¹ and an IC50 [2] of 25 µM. For the same molecule, the “distribution of hNcl in the different cell compartments” value [3] was “did not show dramatic variations”, the “protein neo-synthesis vs untreated cells” value [4] was “no significant differences” and the “protection of hNcl from aggregation in CETSA” value [5] was “effect higher than that of the positive control”. The “toxicity: concentration up to which no toxicity was observed” value [6] was > 100 µM.
